{"source": "patent US20090220432A1", "about": "“Imaging agents and methods of using same for detecting multidrug resistance in cancer” (The Johns Hopkins University, priority 2005, published 2009)", "key": {"MCF-7^adr cells [1]": {"test_system": "MCF-7^adr cells", "experiment": "Flow cytometry (FACS) of contrast agent uptake", "type": "cell-based, Human", "protocol": "FIG. 4 is a graph showing fluorescence detection of Tat-GdDOTA-TAMRA taken up by MCF-7^wt and MCF-7^adr cells after exposure to 0.5 mg/ml of same for 20 min. Dotted lines represent controls (line “a”: MCF-7^wt; line “b”: MCF-7^adr). Solid lines represent the cells treated with Tat-GdDOTA-TAMRA (line “c”: MCF-7^wt; line “d”: MCF-7^adr). […] A FACSCalibur (Becton Dickinson Biosciences, San Jose, Calif., U.S.A.) was used for flow cytometry. Acquisition and analysis were performed with Cell Quest software (Becton Dickinson Biosciences, San Jose, Calif., U.S.A.).\n(§1) In addition to the above experiments, collected cell pellets were incubated with 250 μl of Tat-GdDOTA-TAMRA (0.5 mg/ml in EMEM) for 20 min at 37° C. in the 5% CO2 incubator. After consecutive washing with PBS, cells were fixed in 3% paraformaldehyde for 15 min. As a control, cells were incubated with EMEM alone. To inhibit multidrug resistance mechanisms, 100 μM of DMCD was added to cells for 20 min prior to exposure to Tat-GdDOTA-TAMRA. In each step, cells were washed thoroughly. TAMRA fluorescence was detected in the orange-red region using band-selective emission filters centered around 600 nm."}, "MCF-7^adr cells [2]": {"test_system": "MCF-7^adr cells", "experiment": "Fluorescent microscopy of contrast agent uptake", "type": "cell-based, Human", "protocol": "(§2) Cells were treated with 100 μg/ml DMCD prior to the exposure to Tat-GdDOTA-TAMRA. An Eclipse E400 microscope with a C-SHG1 super high pressure mercury lamp and a Coolpix 5000 digital camera (Nikon Inc., Tokyo, Japan) was used for fluorescent microscopy. Exposure time= 1/15 s, magnification=×40.\nas §1"}, "wild type KB tumor": {"test_system": "wild type KB tumor", "details": "cited from earlier work"}, "MCF-7^wt cells [3]": {"test_system": "MCF-7^wt cells", "experiment": "Fluorescent microscopy of contrast agent uptake", "type": "cell-based, Human", "details": "0.5 mg/ml for 20 min", "protocol": "as §2, §1"}, "MCF-7^wt cells [4]": {"test_system": "MCF-7^wt cells", "experiment": "Confocal microscopy of contrast agent with DAPI nuclei staining", "type": "cell-based, Human", "details": "wild type cells, 10 μg/ml for 30 min", "protocol": "(§3) Confocal microscopy. MCF-7^wt and MCF-7^adr cell lines were separately seeded in each 4-chamber glass slide (Nalge Nunc International Corp., Naperville, Ill., U.S.A.). Cells were incubated with 250 μl of Tat-GdDOTA-TAMRA (10 μg/ml) for 30 min in the 5% CO2 incubator. Cell nuclei were stained with DAPI ([…]) for 5 min. Cells were fixed with 3% paraformaldehyde for 15 min, and mounted under a coverslip following removal of plastic chambers. Confocal studies were performed with an inverted Zeiss LSM 410 confocal microscope (Carl Zeiss AG, Jena, Germany) using a 40× water immersion lens. In vitro MRI study. […] A saturation recovery snapshot-FLASH pulse sequence with an excitation pulse flip angle of 10 degrees, an echo time of 1.245 ms, and ten T1, saturation recovery delays (50, 100, 250, 500, 1,000, 1,500, 2,000, 3,000, 5,000, 12,000 ms) were used (Bhujwalla, Z. M., Artemov, D., Natarajan, K., Ackerstaff, E. & Solaiyappan, M., “Vasuclar Differences Detected by MRI for Metastatic Versus Nonmetastatic Breast and Prostate Cancer Xenografts”, Neoplasia 3, 143-153 (2002)). Quantitative T1, maps of the samples were reconstructed using custom-written software in the IDL programming environment Research Systems Inc., Boulder, Colo., U.S.A.) that runs on Linux workstations. […]"}, "MCF-7^adr cells [5]": {"test_system": "MCF-7^adr cells", "experiment": "Confocal microscopy of contrast agent with DAPI nuclei staining", "type": "cell-based, Human", "details": "MDR cells, 10 μg/ml for 30 min", "protocol": "as §3"}, "MCF-7^wt cells [6]": {"test_system": "MCF-7^wt cells", "experiment": "In vitro MRI T1 measurement of labeled cells", "type": "cell-based, Human", "protocol": "as §1\n(§4) Confocal microscopy. MCF-7^wt and MCF-7^adr cell lines were separately seeded in each 4-chamber glass slide (Nalge Nunc International Corp., Naperville, Ill., U.S.A.). Cells were incubated with 250 μl of Tat-GdDOTA-TAMRA (10 μg/ml) for 30 min in the 5% CO2 incubator. Cell nuclei were stained with DAPI ([…]) for 5 min. Cells were fixed with 3% paraformaldehyde for 15 min, and mounted under a coverslip following removal of plastic chambers. Confocal studies were performed with an inverted Zeiss LSM 410 confocal microscope (Carl Zeiss AG, Jena, Germany) using a 40× water immersion lens. In vitro MRI study. For the in vitro MRI study, the cell labeling procedure followed the protocol used for flow cytometry and microscopy studies, except that 20 µM of cyclosporin A was used, rather than DMCD as a multidrug resistance inhibitor. Cell suspensions were transferred into micro-centrifuge PCR tubes. MRI was carried out on a Bruker horizontal bore 9.4T spectrometer (Bruker Biospin GmbH, Rheinstetten, Germany) equipped with shielded gradients. The Paravision 3.0.2 program (Bruker Biospin GmbH) was used as acquisition software. […] Quantitative T1, maps of the samples were reconstructed using custom-written software in the IDL programming environment Research Systems Inc., Boulder, Colo., U.S.A.) that runs on Linux workstations. Final analysis was performed with the Image) program. (NIH, Bethesda, Md., U.S.A.)."}, "MCF-7^adr cells [7]": {"test_system": "MCF-7^adr cells", "experiment": "In vitro MRI T1 measurement of labeled cells", "type": "cell-based, Human", "protocol": "as §1, §4"}, "[8]": {"experiment": "T1 relaxivity of the agent at 9.4T", "type": "physicochemical", "text": "(§5) Materials. An HIV-1 Tat basic domain peptide-GdDOTA-carboxytetramethylrhodamine conjugates (Tat-GdDOTA-TAMRA, MW=2,989; as shown in FIG. 1) was custom-synthesized by Global Peptide Services, LLC (Fort Collins, Colo., U.S.A.). The specific T1 relaxivity (R,) of the agent at 9.4T is 4.9 (sec·mM)^−1. Monoclonal anti-P-gp [P-7965], streptavidin-QR conjugates [S-2899], and rhodamine 123 [R-8004] were purchased from Sigma Chemical Company (St. Louis, Mo., U.S.A.). Heptakis-(2,6-di-O-methyl)-β-cyclodextrin (DMCD) and cyclosporin A were purchased from Sigma-Aldrich Co. (St. Louis, Mo., U.S.A.). 4′,6-diamidino-2-phenylindole (DAPI) was obtained from Invitrogen Corp. (Carlsbad, Calif., U.S.A.). All other chemicals were obtained as reagent-grade products. Cell lines. Human breast adenocarcinoma (MCF-7^wt) and its multi-drug-resistant variant (MCF-7^adr) were maintained in Eagle's minimum essential medium (EMEM) with 1% penicillin, streptomycin, and 10% fetal bovine serum at 37° C. with 5% CO2. For MCF-7^adr cells, the growth medium was supplemented with 1.5 μM of adriamycin every medium change. Flow cytometry and fluorescent microscopy. Initially, to check P-gp expression and P-gp function of both cell lines, flow cytometry was implemented using a double staining technique as follows. […]"}, "MCF-7^wt cells [9]": {"test_system": "MCF-7^wt cells", "experiment": "Flow cytometry of rhodamine 123 uptake (double staining with anti-P-gp)", "type": "cell-based, Human", "details": "30 min incubation", "text": "as §5"}, "MCF-7^adr cells [10]": {"test_system": "MCF-7^adr cells", "experiment": "Flow cytometry of rhodamine 123 uptake (double staining with anti-P-gp)", "type": "cell-based, Human", "details": "30 min incubation", "text": "as §5"}, "[11]": {"experiment": "MRI relaxation times of water sample doped with GdDTPA", "type": "physicochemical", "details": "water sample doped with GdDTPA (0.05 M)"}, "[12]": {"details": "MCF-7^adr, 0.5 mg/ml for 20 min"}}, "note": "Entries after “also recorded” stand apart in the source; their conditions may differ."}
{"compound": "COC[C@H]1O[C@@H]2O[C@H]3[C@H](O)[C@@H](OC)[C@@H](O[C@H]4[C@H](O)[C@@H](OC)[C@@H](O[C@H]5[C@H](O)[C@@H](OC)[C@@H](O[C@H]6[C@H](O)[C@@H](OC)[C@@H](O[C@H]7[C@H](O)[C@@H](OC)[C@@H](O[C@H]8[C@H](O)[C@@H](OC)[C@@H](O[C@H]1[C@H](O)[C@H]2OC)O[C@@H]8COC)O[C@@H]7COC)O[C@@H]6COC)O[C@@H]5COC)O[C@@H]4COC)O[C@@H]3COC", "note": "[DMCD, Heptakis-(2,6-di-O-methyl)-β-cyclodextrin, reference compound]", "values": [{"measurement": "uptake of Tat-GdDOTA-TAMRA after MDR inhibitor pre-treatment (FACS)", "setting": "MCF-7^adr cells [1]; MCF-7^adr pre-treated with inhibitor", "value": "recovered almost to the level typical for wild type cells"}, {"measurement": "retention of Tat-GdDOTA-TAMRA conjugates after MDR inhibitor pre-treatment (microscopy)", "setting": "MCF-7^adr cells [2]; MCF-7^adr pre-treated with inhibitor for 20 min", "value": "high retention"}]}
{"compound": "[C-]#[N+]CC(C)(C)OC.[C-]#[N+]CC(C)(C)OC.[C-]#[N+]CC(C)(C)OC.[C-]#[N+]CC(C)(C)OC.[C-]#[N+]CC(C)(C)OC.[C-]#[N+]CC(C)(C)OC.[Tc]", "note": "[[^99mTc]SESTAMIBI]", "values": [{"measurement": "retention in tumor", "setting": "wild type KB tumor", "value": "retained"}]}
{"compound": "HIV-1 Tat basic domain peptide-GdDOTA-carboxytetramethylrhodamine conjugates [Tat-GdDOTA-TAMRA]", "values": [{"measurement": "agent delivered into cells by FACS, in comparison to MCF-7^wt", "setting": "MCF-7^adr cells [1]; [12]", "value": "significantly lower"}, {"measurement": "uptake by fluorescence microscopy", "setting": "MCF-7^wt cells [3]", "value": "Efficient uptake"}, {"measurement": "fluorescence detected by microscopy", "setting": "MCF-7^adr cells [2]; [12]", "value": "Lower or no fluorescence"}, {"measurement": "intracellular localization (confocal)", "setting": "MCF-7^wt cells [4]", "value": "co-localized with nuclei"}, {"measurement": "intracellular localization (confocal)", "setting": "MCF-7^adr cells [5]", "value": "significantly less compound and less co-localization with nuclei"}, {"measurement": "T1", "setting": "MCF-7^wt cells [6]; MCF-7^wt cells, 0.5 mg/ml agent for 20 min, 9.4T MRI, averaged T1", "value": "1.79 ± 0.02", "unit": "s"}, {"measurement": "T1 reduction (ΔT1)", "setting": "MCF-7^wt cells [6]; MCF-7^wt, treated vs control (Table 1 columns 2 and 3)", "value": "0.54 ± 0.11", "unit": "s"}, {"measurement": "effect on T1 relaxation time", "setting": "MCF-7^wt cells [6]; wild type cells, 0.5 mg/ml", "value": "significantly decreased; also recorded: significantly reduced"}, {"measurement": "T1", "setting": "MCF-7^adr cells [7]; MCF-7^adr cells, 0.5 mg/ml agent for 20 min, 9.4T MRI, averaged T1", "value": "2.05 ± 0.06", "unit": "s"}, {"measurement": "T1 reduction (ΔT1)", "setting": "MCF-7^adr cells [7]; MCF-7^adr, treated vs control (Table 1 columns 6 and 7)", "value": "0.3 ± 0.11", "unit": "s"}, {"measurement": "effect on T1 relaxation time", "setting": "MCF-7^adr cells [7]; MDR cells treated with the conjugates alone", "value": "almost no decrease"}, {"measurement": "specific T1 relaxivity", "setting": "[8]", "value": 4.9, "unit": "s/mM"}]}
{"compound": "rhodamine 123", "values": [{"measurement": "accumulation of rhodamine 123", "setting": "MCF-7^wt cells [9]", "value": "efficient accumulation"}, {"measurement": "accumulation of rhodamine 123", "setting": "MCF-7^adr cells [10]", "value": "reduced accumulation"}]}
{"compound": "O=C([O-])CN(CCN(CC(=O)[O-])CC(=O)O)CCN(CC(=O)[O-])CC(=O)O.[Gd+3]", "note": "[GdDTPA]", "values": [{"measurement": "T1 relaxation time", "setting": "[11]", "value": "~25", "unit": "ms"}, {"measurement": "T2 relaxation time", "setting": "[11]", "value": "~25", "unit": "ms"}]}
